Source: BindingDB's records for doi:10.1016/j.bmcl.2008.04.031 (The University of Tokyo, 2008)

Test: Degradation promoting activity of FLAG tagged cIAP1 expressed in human HT1080 cells after 3 hrs by Western blotting analysis

IC50	Compound
0.69 µM	COC(=O)[C@H](CC(C)C)NC(=O)[C@@H](O)[C@H](N)Cc1ccccc1 [(S)-methyl 2-((2S,3R)-3-amino-2-hydroxy-4-phenylbutanamido)-4-methylpentanoate]
1.86 µM	CC(C)C[C@H](NC(=O)[C@@H](O)[C@H](N)Cc1ccccc1)C(=O)OCCNS(=O)(=O)c1cccc2c(N(C)C)cccc12 [(S)-2-(1-(dimethylamino)naphthalene-5-sulfonamido)ethyl 2-((2S,3R)-3-amino-2-hydroxy-4-phenylbutanamido)-4-methylpentanoate]
